# Patent US6310051A, “Use of chelating agents in the treatment of atherosclerotic conditions” (Nycomed Imaging AS, priority 1997, dated 2001)
# What was measured:
# human LDL = test: Copper-catalyzed oxidation of human LDL in vitro, increase in absorbance at 234 nm (diene-products); type: biochemical; conditions: 5 μM CuCl2, 30° C., PBS; for inhibition of LDL oxidation, concentration dependence: absorbance at 234 nm over 225 minutes; for inhibition of LDL oxidation at 5 μM: 5 μM compound; for inhibition of LDL oxidation at 5 μM / inhibition of LDL oxidation at 10 μM: 234 nm; for inhibition of LDL oxidation at 10 μM: 10 μM compound
# Description: Copper-catalyzed LDL-oxidation was monitored by following the increase in absorbance at wavelength 234 nm over time (representing increase in diene-products).
# Human LDL (1.025<d<1.050 g/ml) was freshly isolated (from sera of normolipidemic donors who had fasted overnight) by sequential ultracentrifugation, in the presence of EDTA (1.4 mg/ml) to inihibit lipid peroxidation. LDL was finally dialyzed under nitrogen against 10 mM phosphate buffer with 160 mM NaCl, pH 7.4 (PBS), for 24 h at 4° C.
# Assays were performed at 30° C. in PBS by mixing 200 μl of the LDL-containing dialysate to PBS to a final volume of 2000 μl. The LDL-oxidation was started by adding 5 μM CuCl2 and the changes in absorbance at wavelength 234 nm was followed over 225 minutes.
# [1] = Plasma metallo-PLED by HPLC after oral (intragastric) administration to rats; type: in vivo; conditions: rat, 100 μmol/kg MnPLED into the stomach, 5 minutes after administration
# Description: In order to get a rough estimate of the bioavailability of MnPLED after oral administration, rats were instilled with MnPLED into the stomach and the plasma concentrations of metallo-PLED was determined at various times after administration.
# 100 μmol/kg MnPLED was instilled into the stomach. Blood (ca 4.5 ml) was withdrawn by cardiac puncture (under CO2 -anaesthesia) and collected in tubes containing heparin (trace metal analysis tubes), 5, 30, 60, 120 minutes and 24 hours after oral administration (2 rats for each time point). Plasma was prepared by centrifugation and ultrafiltration and metallo-PLED was determined by HPLC as described by Toft et al. 1997 (Acta Radiologica 38: 677-689).
Substance,"inhibition of LDL oxidation, concentration dependence (human LDL)",inhibition of LDL oxidation at 5 μM (human LDL),inhibition of LDL oxidation at 10 μM (human LDL),presence of MnPLED in plasma ([1]; one animal),transmetallation of MnPLED into ZnPLED ([1]; plasma)
"dihydrogen [N,N'-ethylenebis [N-[[3-hydroxy-5-(hydroxymethyl)-2-methyl-4-pyridyl]methyl] glycinato] (4-)] manganate(2-) [MnPLED]",inhibited LDL oxidation in a concentration-dependent manner,more than 50%,almost complete inhibition,may indicate the presence of small amounts of MnPLED in plasma,most of the MnPLED has already been transmetallated into ZnPLED
MnDPDP,inhibited LDL oxidation in a concentration-dependent manner,more than 50%,almost complete inhibition,,
